Values quoted from earlier work as cited in patent publication US20210244731A1, “TABLET CONTAINING ANTITUMOR AGENT” (FUJIFILM Corporation, priority 2018, published 2021).

Target: T1, FLT3 (Homo sapiens, UniProt P36888)
T1 sequence (P36888 27-993): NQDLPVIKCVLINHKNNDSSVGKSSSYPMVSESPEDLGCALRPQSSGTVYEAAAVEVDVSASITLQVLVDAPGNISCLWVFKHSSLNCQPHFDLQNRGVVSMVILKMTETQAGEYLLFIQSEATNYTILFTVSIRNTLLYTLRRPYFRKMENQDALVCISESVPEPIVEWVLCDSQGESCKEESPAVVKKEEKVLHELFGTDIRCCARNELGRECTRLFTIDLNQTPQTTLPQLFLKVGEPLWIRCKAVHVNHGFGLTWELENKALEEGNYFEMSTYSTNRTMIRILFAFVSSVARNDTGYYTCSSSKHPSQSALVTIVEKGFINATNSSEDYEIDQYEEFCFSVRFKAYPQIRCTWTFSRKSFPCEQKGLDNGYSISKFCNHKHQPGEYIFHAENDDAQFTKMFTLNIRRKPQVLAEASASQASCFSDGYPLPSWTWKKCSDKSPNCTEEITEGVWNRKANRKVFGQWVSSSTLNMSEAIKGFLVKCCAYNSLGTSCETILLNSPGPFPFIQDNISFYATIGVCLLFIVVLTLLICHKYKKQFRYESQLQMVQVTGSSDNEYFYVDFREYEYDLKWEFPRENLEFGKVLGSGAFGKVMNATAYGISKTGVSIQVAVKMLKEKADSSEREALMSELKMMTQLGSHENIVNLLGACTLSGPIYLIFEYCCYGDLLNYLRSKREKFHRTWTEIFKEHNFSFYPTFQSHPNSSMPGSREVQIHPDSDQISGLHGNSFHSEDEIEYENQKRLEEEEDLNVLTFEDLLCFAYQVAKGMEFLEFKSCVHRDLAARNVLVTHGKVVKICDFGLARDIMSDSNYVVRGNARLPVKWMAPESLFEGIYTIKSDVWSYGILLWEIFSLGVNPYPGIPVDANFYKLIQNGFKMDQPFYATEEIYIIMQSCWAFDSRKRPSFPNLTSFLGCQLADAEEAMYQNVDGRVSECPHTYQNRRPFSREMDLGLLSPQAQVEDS
Conditions: statement of background, WO2015/056683A

For CCCNc1nc(Nc2ccc(C#N)cc2)ncc1C#CCCCNC(=O)[C@H](C)N(C)C(=O)/C=C/CN(C)C [Compound A, (S,E)-N-(1-((5-(2-((4-cyanophenyl)amino)-4-(propylamino)pyrimidin-5-yl)-4-pentyn-1-yl)amino)-1-oxopropan-2-yl)-4-(dimethylamino)-N-methyl-2-butenamide], the FLT3 inhibitory action is listed as “FLT3 inhibitory action”.
